Assay results reported in publication PMC5214803 (Scientific Reports, 2017).

Target: T1, Apc holoenzyme (Apc core complex plus Apcε) (Aromatoleum aromaticum, UniProt Q5P5G2+Q5P5G4)
T1 construct: gene apc3
Details: ATP sites in Apcα and Apcα′ inferred from structure

T1 sequence (Q5P5G4 2-732): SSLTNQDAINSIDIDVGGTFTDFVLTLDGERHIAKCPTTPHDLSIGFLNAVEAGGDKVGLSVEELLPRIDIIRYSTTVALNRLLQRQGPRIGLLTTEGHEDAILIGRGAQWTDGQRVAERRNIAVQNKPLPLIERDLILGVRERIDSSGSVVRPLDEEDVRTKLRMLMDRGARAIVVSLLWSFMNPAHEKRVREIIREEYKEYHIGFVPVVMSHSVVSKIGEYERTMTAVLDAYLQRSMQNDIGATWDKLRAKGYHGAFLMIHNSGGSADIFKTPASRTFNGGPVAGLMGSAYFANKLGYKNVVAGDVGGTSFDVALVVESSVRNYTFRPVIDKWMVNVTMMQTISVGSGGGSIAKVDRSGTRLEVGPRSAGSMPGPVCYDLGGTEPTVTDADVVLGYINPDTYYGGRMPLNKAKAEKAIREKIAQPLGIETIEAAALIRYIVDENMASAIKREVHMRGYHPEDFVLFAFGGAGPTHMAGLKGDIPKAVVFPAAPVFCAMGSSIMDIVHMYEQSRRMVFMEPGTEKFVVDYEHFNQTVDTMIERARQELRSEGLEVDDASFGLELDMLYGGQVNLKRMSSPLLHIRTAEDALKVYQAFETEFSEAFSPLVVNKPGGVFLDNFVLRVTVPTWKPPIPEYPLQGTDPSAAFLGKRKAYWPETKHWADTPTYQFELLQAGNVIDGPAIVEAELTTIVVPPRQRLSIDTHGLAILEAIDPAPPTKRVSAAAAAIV
T1 sequence (Q5P5G2 whole entry): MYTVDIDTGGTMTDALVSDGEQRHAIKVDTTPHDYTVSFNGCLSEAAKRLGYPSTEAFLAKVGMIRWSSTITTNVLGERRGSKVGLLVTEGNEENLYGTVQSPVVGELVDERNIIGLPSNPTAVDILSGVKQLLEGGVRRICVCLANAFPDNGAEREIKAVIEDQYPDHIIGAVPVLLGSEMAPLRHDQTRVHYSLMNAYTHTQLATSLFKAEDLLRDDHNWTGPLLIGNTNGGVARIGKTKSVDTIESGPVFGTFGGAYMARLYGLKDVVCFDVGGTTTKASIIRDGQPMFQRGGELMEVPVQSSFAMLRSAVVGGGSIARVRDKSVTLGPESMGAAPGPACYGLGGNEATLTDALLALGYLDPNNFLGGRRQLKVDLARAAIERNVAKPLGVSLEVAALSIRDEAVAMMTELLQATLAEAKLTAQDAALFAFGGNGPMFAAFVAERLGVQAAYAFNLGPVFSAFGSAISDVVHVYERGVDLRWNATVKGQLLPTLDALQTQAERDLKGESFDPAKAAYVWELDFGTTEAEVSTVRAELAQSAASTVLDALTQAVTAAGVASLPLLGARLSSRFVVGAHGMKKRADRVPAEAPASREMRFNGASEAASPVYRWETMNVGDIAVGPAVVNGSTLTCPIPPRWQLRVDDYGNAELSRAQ
T1 sequence (Q5P5G5 2-684 partner): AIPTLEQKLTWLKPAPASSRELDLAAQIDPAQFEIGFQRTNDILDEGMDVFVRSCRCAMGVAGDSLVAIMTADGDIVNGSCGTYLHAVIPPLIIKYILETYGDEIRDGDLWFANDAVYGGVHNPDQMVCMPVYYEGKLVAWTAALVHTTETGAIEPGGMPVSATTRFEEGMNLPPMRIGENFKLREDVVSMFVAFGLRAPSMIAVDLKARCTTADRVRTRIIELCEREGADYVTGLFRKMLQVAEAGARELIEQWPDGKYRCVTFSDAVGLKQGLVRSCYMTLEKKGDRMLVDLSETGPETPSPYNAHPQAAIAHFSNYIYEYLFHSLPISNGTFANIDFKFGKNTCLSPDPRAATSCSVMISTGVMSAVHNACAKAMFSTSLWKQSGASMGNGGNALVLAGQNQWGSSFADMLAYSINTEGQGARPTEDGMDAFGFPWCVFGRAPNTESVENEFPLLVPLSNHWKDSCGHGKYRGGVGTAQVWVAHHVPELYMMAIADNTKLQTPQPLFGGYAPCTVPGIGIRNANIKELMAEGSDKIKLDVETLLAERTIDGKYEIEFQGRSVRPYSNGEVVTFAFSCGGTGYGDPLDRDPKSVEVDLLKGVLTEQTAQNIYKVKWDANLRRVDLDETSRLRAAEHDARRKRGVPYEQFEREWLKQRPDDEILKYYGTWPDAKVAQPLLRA
T1 sequence (Q5P5G3 whole entry partner): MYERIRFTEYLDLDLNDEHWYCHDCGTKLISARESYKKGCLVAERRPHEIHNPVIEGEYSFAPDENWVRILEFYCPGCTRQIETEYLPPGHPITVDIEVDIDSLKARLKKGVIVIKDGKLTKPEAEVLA
T1 sequence (Q5P5G6 whole entry partner): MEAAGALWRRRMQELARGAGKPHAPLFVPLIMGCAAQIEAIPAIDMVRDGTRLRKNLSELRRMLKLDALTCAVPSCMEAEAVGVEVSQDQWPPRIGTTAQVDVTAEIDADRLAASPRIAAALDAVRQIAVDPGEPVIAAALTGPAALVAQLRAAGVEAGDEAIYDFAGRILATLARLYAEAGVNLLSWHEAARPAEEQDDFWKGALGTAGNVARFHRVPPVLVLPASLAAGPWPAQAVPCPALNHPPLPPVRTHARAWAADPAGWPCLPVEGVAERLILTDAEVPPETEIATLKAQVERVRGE

Nc1ncnc2c1ncn2[C@@H]1O[C@H](COP(=O)(O)OP(=O)(O)OP(=O)(O)O)[C@@H](O)[C@H]1O [ATP]
ATPase activity assay: confirmed by determination of the ATPase activity and carboxylation of acetophenone
